Test results as given in publication PMC12856912, “Structure-Guided Semisynthesis of Blasticidin S–Amicetin Chimeras as Selective Ribosome Inhibitors” (Journal of the American Chemical Society, 2026).
≈ marks a conversion by molar mass, not a printed value.

Legend:
[1] = system: Methicillin resistant Staphylococcus epidermidis (MRSE) ATCC 35984 NRS101; test: Antibacterial MIC assay, serial dilution; assay type: cell-based; conditions: for Selectivity index (CC50/MIC) MRSE 35984: CC50 Vero cells / MIC; for MIC: Staphylococcus epidermidis, read-out: MIC Methicillin resistant Staphylococcus epidermidis (MRSE) ATCC 35984 NRS101
[2] = system: Escherichia coli BAA-2452; test: Antibacterial MIC assay, serial dilution; assay type: cell-based; conditions: BAA2452, read-out: MIC Escherichia coli BAA-2452
[3] = Cytotoxicity assay (MTS/PMS); assay type: cell-based; conditions: monkey, Vero cells (monkey kidney epithelial cells); 24 h treatment, MTS/PMS, average of three biological replicates; read-out: CC50 against Vero cells
Method: The potential cytotoxic eff ect of the test compounds was investigated using Vero cells (monkey kidney epitheli al cells) following est ablished protocols.3 Briefly, Vero cells were plated into 96-well plates supplemented with Dulbecco's Modified Eagle Medium (DMEM) containing 10% fetal bovine serum (FBS). The cells were placed in a humidified 37 °C environment for incubation with 5% CO₂ for 24 h to allow proper adherence and growth. Following the incubation period, the culture medium was replaced with fresh DMEM containing serial dilutions of the test compounds, while the v ehicle alon e w as used as a negative control. The treated cells were incubated for an additional 24 h. To assess cell viability, the MTS/PMS reagent was added to each well and incubat ed for 4 h. A microplate reader (S ynergy H1, BioTek, USA) was used to m easure absorbance at 490 nm. Al l experiments wer e cond ucted usingthree biologi cal replicates .
Ta b l e S2. CC50 valuesa (µg/mL) against Vero cells […]
aValues at which the cell viability (normalized to vehicle control) was 50%. […]

S. aureus ATCC 6538P = test: Antibacterial MIC assay, serial dilution; assay type: cell-based, Staphylococcus aureus; conditions: for Selectivity index (CC50/MIC) S. aureus 6538P: CC50 Vero cells / MIC; for MIC: Staphylococcus aureus, ATCC 6538P / ATCC 6539P, read-out: MIC S. aureus ATCC 6539P
Method: (§1) Media and solutions were autoclaved or sterile filtered prior to use and mani pulations were carri ed out in a laminar flow hood. Antibacterial t esting was performed in polypropylene 96-well flat bottom plates. The minimal inhibitory concentration of blasticidin S (1) hydrochloride, methyl ester (3) trihydrochloride, P10 (2) tri-T FA , phenet hyl amide (4) tri -T FA , an d blastimidines M 19– 22, A, 29–32, P 37–40, and C 43–46 (salt forms as described in the te xt) were assessed against Staphylococcus aureus ΔNorA, S. aureus ATCC 6538P, methicillin-resistant S. aureus (MRSA) ATCC 43300, Enterococcus faecalis ATCC 29212, vancomycin- resistant Enterococcus, Klebsiella pneumoniae ATCC 29665, Pseudomonas aeruginosa,and Acinetobacter baumannii ATCC 17978 using serial dilutions. Doxycycline (Gold Bio) as a positive control and the vehicle as a negative control. Stock solutions of each compound were prepared at 2.56 mg/mL in 50% DMSO/water and serially diluted in 50% DMSO/water to create master plates. From the master plates, 10 μ L o f each dilution was applied to test plates using a Bravo automated liquid transfer system (Agilent).
(§2) Bacteria previously grown overnight (37 °C, 120–200 RPM), in LB broth were diluted to an OD600 of 0.05 in cation-adjusted Mueller-Hinton broth (CAMHB), grown to an OD600 of ~0.5, and diluted to an OD600 of 0.004 in CAMHB . These diluted cultures were applied to the test plates (190 μL per test well) resulting in final concentrations of the test compounds of 128–1 μg/ m L.
(§3) Growth controls (wells with inoculated media but no vehicle or test compounds) were included to assess any potential toxicity from the vehicle. Th e plates were in cubated at 37 °C for 16–18 h, except fo r VRE and E. faecalis, which w ere in cub ated at 37 °C fo r 24 h. Inh ibition was determined by measuring the optical density at 600 nm (OD60 0) with a Cytation 3 pl ate read er (BioTek). The optical density measurem ents were no rmalized to the positive and negative controls and the vehicle and growth controls were compared and found to b e indistinguishable, indicating no toxicity from […]
(§4) the vehicle used. The MIC was the lowest concentration that inhibited >90% of growth. Two biological replicates were performed in duplicate. MIC values are reported as a range from […]

MRSA ATCC 43300 = test: Antibacterial MIC assay, serial dilution; assay type: cell-based, Staphylococcus aureus; conditions: for Selectivity index (CC50/MIC) MRSA 43300: CC50 Vero cells / MIC; for MIC: Staphylococcus aureus, read-out: MIC MRSA ATCC 43300
Method: as §1, §2, §3, §4

S. aureus ΔNorA = test: Antibacterial MIC assay, serial dilution; assay type: cell-based, Staphylococcus aureus; conditions: for Selectivity index (CC50/MIC) S. aureus ΔNorA: CC50 Vero cells / MIC; for MIC: Staphylococcus aureus, read-out: MIC S. aureus ∆NorA
Method: as §1, §2, §3, §4

[4] = system: Vancomycin resistant E. faecalis NR-31972 (VRE); test: Antibacterial MIC assay, serial dilution; assay type: cell-based, Enterococcus faecalis; conditions: for Selectivity index (CC50/MIC) VRE NR-31972: CC50 Vero cells / MIC; for MIC: Enterococcus faecalis, VRE, 24 h, read-out: MIC Vancomycin resistant E. faecalis NR-31972 (VRE)
Method: as §1, §2, §3, §4

[5] = system: Klebsiella pneumoniae ATCC 29665; test: Antibacterial MIC assay, serial dilution; assay type: cell-based; conditions: Klebsiella pneumoniae, ATCC29665; range from biological replicates; read-out: MIC K. pneumoniae ATCC-29665
Method: as §1, §2, §3, §4

Pseudomonas aeruginosa = test: Antibacterial MIC assay, serial dilution; assay type: cell-based; conditions: for Selectivity index (CC50/MIC) P. aeruginosa: CC50 Vero cells / MIC; for MIC: Pseudomonas aeruginosa, range from biological replicates, read-out: MIC P. aeruginosa
Method: as §1, §2, §3, §4

[6] = system: Vancomycin resistant Enterococcus faecium NR-31909 (VRE); test: Antibacterial MIC assay, serial dilution; assay type: cell-based; conditions: for MIC: Enterococcus faecium, VRE, 24 h, read-out: MIC Vancomycin resistant Enterococcus faecium NR-31909 (VRE)
Method: as §1, §2, §3, §4

[7] = system: Enterococcus faecalis ATCC 29212; test: Antibacterial MIC assay, serial dilution; assay type: cell-based; conditions: for Selectivity index (CC50/MIC) E. faecalis 29212: CC50 Vero cells / MIC; for MIC: Enterococcus faecalis, ATCC 29112 / ATCC 29212, 24 h, read-out: MIC E. faecalis ATCC 29112
Method: as §1, §2, §3, §4

[8] = system: Acinetobacter baumannii ATCC 17978; test: Antibacterial MIC assay, serial dilution; assay type: cell-based; conditions: ATCC17978, range from biological replicates
Method: as §1, §2, §3, §4

[9] = system: Methicillin resistant S. aureus (MRSA) USA300; test: Antibacterial MIC assay, serial dilution; assay type: cell-based, Staphylococcus aureus; conditions: for Selectivity index (CC50/MIC) MRSA USA300: CC50 Vero cells / MIC; for MIC: Staphylococcus aureus, read-out: MIC Methicillin resistant S. aureus (MRSA) USA300
MRSA USA-300 = assay type: cell-based, Staphylococcus aureus; conditions: for bacteriostatic or bactericidal effect in time-kill assay: 5× MIC and 10× MIC
Method: MRSA USA-300 was grown overnight in cation- adjusted Muell er-Hinton broth (CAMHB), then subcultured into fresh CAMHB and incubated aerobi cally at 37°C until reaching the logarithmic phase, corresponding to an optical density (OD₆₀₀) of 0.2. The bacterial cultures were further diluted to adjust to a final concentration of 5 × 10⁵ CFU/mL in CAMHB. P3, P5, vancomycin and linezolid, were added at concentrations of 5× and 10× MIC. A DMSO-treated […]
culture serv ed as an untreated control. The cultures were aerobically maintai ned at 37°C in shaking incubator. At specifi c sampling times, aliquots were collected, resuspended in phosphate-buffered saline (PBS) and distributed to three replicates on tryptic soy agar (TSA). After a 24-hour incubation period at 37°C, the number of colony- forming units (CFUs) was evaluated.
F i g u re S 1. Time kill results against MRSA USA 300 at 5X and 10X MIC. Compound P3 ( 38) is shown as red squares, compound P5( 40) is shown as green tri angles. Vancomycin (inverted purple triangle) is used as a b act ericidal control and linezolid (orange diamond) as a bacteriostatic control with DMSO (blue circles ) as a neg ative control. […]

In the case of CN(CC[C@H](N)CC(=O)N[C@H]1C=C[C@H](n2ccc(NC(=O)c3ccc(N)cc3)nc2=O)O[C@@H]1C(=O)NCCc1ccccc1)C(=N)N [Blastimidine P2], the “Selectivity index (CC50/MIC) MRSE 35984” value [1] is reported as over 16, the MIC [1] is reported as 16 µg/mL (≈ 24.8 µM) and the MIC [2] is reported as 128 µg/mL (≈ 199 µM). The CC50 at 24 h [3] was over 256 µg/mL, the “Selectivity index (CC50/MIC) S. aureus 6538P” value (S. aureus ATCC 6538P) was over 12 and the MIC (S. aureus ATCC 6538P) was 16 to 32 µg/mL (≈ 24.8 to 49.6 µM). The “Selectivity index (CC50/MIC) MRSA 43300” value (MRSA ATCC 43300) was over 4.0, the MIC (MRSA ATCC 43300) was 64 µg/mL (≈ 99.3 µM) and the “Selectivity index (CC50/MIC) S. aureus ΔNorA” value (S. aureus ΔNorA) was over 32. The MIC (S. aureus ΔNorA) was 8 µg/mL (≈ 12.4 µM), the “Selectivity index (CC50/MIC) VRE NR-31972” value [4] was over 16 and the MIC [4] was 16 µg/mL (≈ 24.8 µM). For the same compound, the MIC [5] was over 128 µg/mL, the “Selectivity index (CC50/MIC) P. aeruginosa” value (Pseudomonas aeruginosa) was over 2.0 and the MIC (Pseudomonas aeruginosa) was 128 µg/mL (≈ 199 µM). For the same compound, the “Selectivity index (CC50/MIC) VRE NR-31909” value ([6]; CC50 Vero cells / MIC) was over 2.0, the MIC [6] was 128 µg/mL (≈ 199 µM) and the “Selectivity index (CC50/MIC) E. faecalis 29212” value [7] was over 32. The MIC [7] was 8 µg/mL (≈ 12.4 µM), the MIC [8] was over 128 µg/mL and the “Selectivity index (CC50/MIC) MRSA USA300” value [9] was over 8.0. The MIC [9] was 32 µg/mL (≈ 49.6 µM).

In the case of CC(=O)Nc1ccc(C(=O)Nc2ccn([C@H]3C=C[C@H](NC(=O)C[C@@H](N)CCN(C)C(=N)N)[C@@H](C(=O)NCCc4ccccc4)O3)c(=O)n2)cc1 [Blastimidine P4], the “Selectivity index (CC50/MIC) MRSE 35984” value [1] is reported as over 16, the MIC [1] is reported as 16 µg/mL (≈ 23.3 µM) and the MIC [2] is reported as over 128 µg/mL. For the same compound, the CC50 at 24 h [3] was over 256 µg/mL, the “Selectivity index (CC50/MIC) S. aureus 6538P” value (S. aureus ATCC 6538P) was over 8.0 and the MIC (S. aureus ATCC 6538P) was 32 µg/mL (≈ 46.6 µM). For the same compound, the “Selectivity index (CC50/MIC) MRSA 43300” value (MRSA ATCC 43300) was over 2.0, the MIC (MRSA ATCC 43300) was 128 µg/mL (≈ 186 µM) and the “Selectivity index (CC50/MIC) S. aureus ΔNorA” value (S. aureus ΔNorA) was over 24. The MIC (S. aureus ΔNorA) was 8 to 16 µg/mL (≈ 11.6 to 23.3 µM), the “Selectivity index (CC50/MIC) VRE NR-31972” value [4] was over 8.0 and the MIC [4] was 32 µg/mL (≈ 46.6 µM). The MIC [5] was over 128 µg/mL, the “Selectivity index (CC50/MIC) P. aeruginosa” value (Pseudomonas aeruginosa) was over 2.0 and the MIC (Pseudomonas aeruginosa) was 128 µg/mL (≈ 186 µM). For the same compound, the MIC [6] was over 128 µg/mL, the “Selectivity index (CC50/MIC) E. faecalis 29212” value [7] was over 8.0 and the MIC [7] was 32 µg/mL (≈ 46.6 µM). For the same compound, the MIC [8] was over 128 µg/mL, the “Selectivity index (CC50/MIC) MRSA USA300” value [9] was over 4.0 and the MIC [9] was 64 µg/mL (≈ 93.2 µM).

In the case of CC(=O)NC[C@H]1CN(c2ccc(N3CCOCC3)c(F)c2)C(=O)O1 [linezolid, reference compound], the “bacteriostatic or bactericidal effect in time-kill assay” value (MRSA USA-300) is reported as “bacteriostatic activity”.

With CN[C@H](CC(C)C)C(=O)N[C@H]1C(=O)N[C@@H](CC(N)=O)C(=O)N[C@H]2C(=O)N[C@H]3C(=O)N[C@H](C(=O)N[C@H](C(=O)O)c4cc(O)cc(O)c4-c4cc3ccc4O)[C@H](O)c3ccc(c(Cl)c3)Oc3cc2cc(c3O[C@@H]2O[C@H](CO)[C@@H](O)[C@H](O)[C@H]2O[C@H]2C[C@](C)(N)[C@H](O)[C@H](C)O2)Oc2ccc(cc2Cl)[C@H]1O [vancomycin, reference compound] the “bacteriostatic or bactericidal effect in time-kill assay” value (MRSA USA-300) was “bactericidal activity” and the “time to bactericidal activity” value (MRSA USA-300; time-kill assay) was at most 8 h.
